# Measurements published in patent publication US20220395487A1, “RIG-I INNATE IMMUNE RECEPTOR ANTAGONISTS AND METHODS OF USING SAME” (YALE UNIVERSITY, priority 2019, published 2022).
# Legend:
# RIG-I [1] = target: T1, RIG-I (Homo sapiens, UniProt O95786); assay: IFN-β/Firefly dual-luciferase reporter assay in HEK 293T cells transfected with hRIG-I; type: cell-based; conditions: HEK293T cells, SLR14 challenge
# T1 sequence (O95786 1-925): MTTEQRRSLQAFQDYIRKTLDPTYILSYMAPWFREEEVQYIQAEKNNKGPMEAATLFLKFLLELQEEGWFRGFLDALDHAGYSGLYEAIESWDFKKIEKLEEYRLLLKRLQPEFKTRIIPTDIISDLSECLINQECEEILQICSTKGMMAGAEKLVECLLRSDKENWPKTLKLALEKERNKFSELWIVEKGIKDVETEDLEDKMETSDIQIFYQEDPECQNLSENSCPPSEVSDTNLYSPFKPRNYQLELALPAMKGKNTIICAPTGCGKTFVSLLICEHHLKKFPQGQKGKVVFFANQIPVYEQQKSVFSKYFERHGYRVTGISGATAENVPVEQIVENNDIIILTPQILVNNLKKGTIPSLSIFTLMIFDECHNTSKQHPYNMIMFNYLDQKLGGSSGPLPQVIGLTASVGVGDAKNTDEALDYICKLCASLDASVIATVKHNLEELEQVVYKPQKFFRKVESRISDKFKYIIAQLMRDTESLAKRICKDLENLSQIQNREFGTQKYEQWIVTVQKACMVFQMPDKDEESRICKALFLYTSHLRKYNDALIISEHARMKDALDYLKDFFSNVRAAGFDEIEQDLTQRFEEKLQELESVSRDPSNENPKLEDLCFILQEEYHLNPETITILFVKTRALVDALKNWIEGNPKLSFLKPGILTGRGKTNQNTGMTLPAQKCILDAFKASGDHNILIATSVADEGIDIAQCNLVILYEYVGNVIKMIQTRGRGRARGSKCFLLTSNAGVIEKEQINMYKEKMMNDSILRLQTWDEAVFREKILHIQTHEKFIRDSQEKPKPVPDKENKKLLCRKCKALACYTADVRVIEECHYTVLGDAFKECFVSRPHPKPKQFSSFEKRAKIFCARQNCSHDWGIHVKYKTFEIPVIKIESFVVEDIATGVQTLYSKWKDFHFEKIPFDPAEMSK
# Protocol: Two different assays were used for evaluating RIG-I inhibition in cells. In the first assay, HEK 293T cells were used to test the influence of compounds on RIG-I signaling activity while simultaneously reporting on relative toxicity. In this case, inhibitor compounds were introduced via growth media replacement rather than by direct addition to cell plates. Specifically, HEK 293T cells (which express RIG-I only under the control of a transfected plasmid) were grown and maintained in T75 flasks containing Dulbecco's Modified Eagle Medium, DMEM (Life Technologies) supplemented with 10% heat-inactivated fetal bovine serum (Hyclone) and non-essential amino acids (Life Technologies). For the IFN-β induction assays, 0.5 ml of cells at 65,000 cells/ml was placed (seeded) in 24-well plates. After 24 h, each well of cells was transfected with 5 ng WT pUNO-hRIG-I (Invivogen), 6 ng pRL-TK constitutive Renilla luciferase reporter plasmid (Promega) and 150 ng of an IFN-β/Firefly luciferase reporter plasmid using the Lipofectamine 2000 transfection reagent (Life Technologies) following the manufacturer's protocol. Protein expression was allowed to proceed for 24 hours. In parallel, a six-point dilution series of each compound of interest was made in a DMSO vehicle and then diluted further into DMEM such that a constant DMSO concentration of 1% is maintained over the entire drug dilution. The DMEM growth media was aspirated from each well of cells and replaced with DMEM that contains the drug. After 30 minutes, the cells were challenged by transfection with 1 μg of the synthetic stem-loop RNA (SLR14) in Lipofectamine 2000. After 5-6 hours, cells were harvested for luminescence analysis in the following manner: Growth media was aspirated from each well, and 100 μl of passive lysis buffer (Promega) was added. Lysis proceeded for 15 min at room temperature. Lysates were clarified by centrifugation, and 20 μl samples of the supernatant were transferred to a 96-well assay plate for analysis using the Dual-Luciferase Reporter Assay System (Promega). Luminescence was measured using a Biotek Synergy H1 plate reader. The resulting Firefly luciferase activity (i.e. the induction of IFN-0) was normalized to the activity of the constitutively expressed Renilla luciferase to account for differences in confluency, transfection efficiency and cell viability across sample wells.
# RIG-I [2] = target: T1, RIG-I; assay: Absorbance titration of compound with RIG-I protein; type: binding; set-up: The native, full-length protein was expressed and purified using methods adapted from published protocols; SUMO (pET-SUMO vector; captured on Ni-NTA) (N, cleaved yes); made in house; host or cells: Rosetta II(DE3) Escherichia coli
# Protocol: FIG. 1A illustrates the structure of RIG-I ΔCARDs bound to a 14 base pair RNA duplex with ADP▪BeF3 (PDBID:5E3H). FIG. 1B illustrates representative IC50 curves for active compounds. Relative activity of a compound was calculated as a fraction of “no inhibitor” measurement and plotted vs. inhibitor concentration. Each data point represents a mean of n=3 determinations±the standard deviation. FIG. 1C illustrates a representative absorption titration spectra of RIG012 binding to RIG-I. Protein concentrations are indicated in figure legend. (Inset) Stoichiometry of RIG-I binding. Fraction bound (A) is plotted against fractional change in RIG-I concentration (ΔRIG-I). Slope=0.95±0.06. […]
# Although IC50 values provide a valuable metric of association for enzyme inhibitors, it was of interest to determine directly whether the lead compound, RIG012, binds to the RIG-I protein. Binding studies were facilitated by the fact that RIG012 contains a strong chromophore that absorbs in the visible range (λmax of 470 nm), making it possible to conduct classical absorbance titrations of the compound with increasing amounts of RIG-I. Upon binding to RIG-I, the 470 nm absorbance band of RIG012 undergoes a dramatic hyperchromic shift to higher intensity values, and the magnitude of this shift is proportional to the relative fraction of bound small molecule (FIG. 1C). […]
smiles,measurement,setting,value
"CCC1(CC)C(=O)N=C2C1=C(OCc1ccccc1)C(=O)c1ccccc12 [RIG012, 4-Benzyloxy-3,3-diethyl-2H,3H,5H-benzo[g]indole-2,5-dione]","inhibition of RIG-I signaling / IFN induction, result in words",RIG-I [1],"potent, dose-dependent inhibition of RIG-I signaling"
same,IC50,"RIG-I [1]; compound in growth medium, read-out: IC50, inhibition of RIG-I signaling (IFN induction luciferase)",1.25 µM
same,slope of fraction bound vs fractional change in RIG-I concentration (stoichiometry of RIG-I binding),"RIG-I [2]; absorbance titration at 470 nm, two independent experiments ± SD",0.95±0.06
same,stoichiometry of compound:RIG-I complex,"RIG-I [2]; absorbance titration, stoichiometric binding regime",1:1 complex
